Bridge positions count the residues as written; N and C are the ends. Square brackets hold non-standard residues; d marks the D form. Ends that are not written are not given here. Peptide text beside a SMILES is read from it. Nle = CCCC[C@H](N)C(=O)O

The source of these data is patent US5824771A, “Cyclic CRF agonists” (The Salk Institute for Biological Studies, priority 1997, dated 1998).

The nature of assay [1]: Lowering of blood pressure on peripheral or iv administration. The note with it: peripheral administration. The class given is in vivo.
Assay [2] deals with rat anterior pituitary cells. Briefly: In vitro stimulation of ACTH and β-endorphin secretion by cultured rat pituitary cells, potency compared with oCRF (Standard) or r/hCRF. The class given is cell-based. The note with it: for stimulation of secretion of ACTH and β-END-LI (testing by the general procedure), in words: general procedure of Example 1. How it is done:
The cyclic CRF agonists are examined for their effects on the secretion of ACTH and β-endorphin in vitro and also in vivo. […] In vivo testing is carried out using the general procedure set forth in C. Rivier et al., Science, 218, 377 (1982).

`CCCC[C@H](NC(=O)[C@H](CCCCN)NC(=O)[C@H](C)NC(=O)[C@H](CCCNC(=N)N)NC(=O)[C@H](Cc1c[nH]cn1)NC(=O)[C@@H](NC(=O)[C@H](CCCC)NC(=O)[C@H](CC(N)=O)NC(=O)[C@H](CCCNC(=N)N)NC(=O)[C@H](CC(C)C)NC(=O)[C@H](CCCC)NC(=O)[C@H](Cc1c[nH]cn1)NC(=O)[C@@H](Cc1ccccc1)NC(=O)[C@@H](NC(=O)[C@H](CC(C)C)NC(=O)[C@H](CC(=O)O)NC(=O)[C@@H](NC(=O)[C@H](CO)NC(C)=O)[C@@H](C)CC)[C@@H](C)O)[C@@H](C)CC)C(=O)N[C@@H](CCC(=O)O)C(=O)NCC(=O)N[C@@H](CCC(=O)O)C(=O)N[C@@H](CCCNC(=N)N)C(=O)N[C@@H](CCC(=O)O)C(=O)N[C@H]1CCC(=O)NCCCC[C@@H](C(=O)N[C@@H](CC(N)=O)C(=O)N[C@@H](CCCNC(=N)N)C(=O)N[C@@H](CC(N)=O)C(=O)N[C@@H](CC(C)C)C(=O)N[C@@H](CC(C)C)C(=O)N[C@@H](CC(=O)O)C(=O)N[C@@H](CCC(=O)O)C(=O)N[C@H](C(N)=O)C(C)C)NC(=O)[C@@H](Cc2c[nH]cn2)NC(=O)[C@H](C)NC1=O` [Example 16 E D-His^32 analog] (Ac-SIDLT[dF]H[Nle]LRN[Nle]IHRAK[Nle]EGEREEA[dH]KNRNLLDEV-NH2; lactam 24-27): the “lowering of blood pressure when administered peripherally, in words” value (from here on “lowering of blood pressure”) in assay [1] is given as “very significant lowering of blood pressure”. Moreover, the “in vitro biopotency, comparison in words” value in assay [2] (compared with the Standard or with a named analog) is recorded as “increases biopotency over that of the D-Leu^32 analog”. In addition, the “stimulation of secretion of ACTH and β-END-LI (testing by the general procedure), in words” value (shortened to “stimulation”) in assay [2] was “stimulate the secretion of ACTH and β-END-LI”.

`CCCC[C@H](NC(=O)[C@H](CCCCN)NC(=O)[C@H](C)NC(=O)[C@H](CCCNC(=N)N)NC(=O)[C@H](Cc1c[nH]cn1)NC(=O)[C@@H](NC(=O)[C@H](CCCC)NC(=O)[C@H](CC(N)=O)NC(=O)[C@H](CCCNC(=N)N)NC(=O)[C@H](CC(C)C)NC(=O)[C@H](CCCC)NC(=O)[C@H](Cc1c[nH]cn1)NC(=O)[C@@H](Cc1ccccc1)NC(=O)[C@@H](NC(=O)[C@H](CC(C)C)NC(=O)[C@H](CC(=O)O)NC(=O)[C@@H](NC(=O)[C@H](CO)NC(C)=O)[C@@H](C)CC)[C@@H](C)O)[C@@H](C)CC)C(=O)N[C@@H](CCC(=O)O)C(=O)NCC(=O)N[C@@H](CCC(=O)O)C(=O)N[C@@H](CCCNC(=N)N)C(=O)N[C@@H](CCC(=O)O)C(=O)N[C@H]1CCC(=O)NCCCC[C@@H](C(=O)N[C@@H](CC(N)=O)C(=O)N[C@@H](CCCNC(=N)N)C(=O)N[C@@H](CC(N)=O)C(=O)N[C@@H](CC(C)C)C(=O)N[C@@H](CC(C)C)C(=O)N[C@@H](CC(=O)O)C(=O)N[C@@H](CCC(=O)O)C(=O)N[C@H](C(N)=O)C(C)C)NC(=O)[C@@H](CC(C)C)NC(=O)[C@H](C)NC1=O` [Example 16 E, (cyclo 30-33)[Ac-Ser^7, D-Phe^12, Nle^14,18,24, Glu^30, D-Leu^32, Lys^33]-maggy urotensin(7-41)] (Ac-SIDLT[dF]H[Nle]LRN[Nle]IHRAK[Nle]EGEREEA[dL]KNRNLLDEV-NH2; lactam 24-27): the “lowering of blood pressure” value in assay [1] was “very significant lowering of blood pressure”. Further, the “stimulation” value in assay [2] is “stimulate the secretion of ACTH and β-END-LI”.

Consider `CCCC[C@H](NC(=O)[C@H](CCC(=O)O)NC(=O)[C@@H](NC(=O)[C@H](CCCC)NC(=O)[C@H](CC(N)=O)NC(=O)[C@H](CCCNC(=N)N)NC(=O)[C@H](CC(C)C)NC(=O)[C@H](CC(C)C)NC(=O)[C@H](Cc1c[nH]cn1)NC(=O)[C@@H](Cc1ccccc1)NC(=O)[C@@H](NC(=O)[C@H](CC(C)C)NC(=O)[C@H](CC(=O)O)NC(=O)[C@@H](NC(=O)[C@H](CO)NC(C)=O)[C@@H](C)CC)[C@@H](C)O)[C@@H](C)CC)C(=O)N[C@@H](C)C(=O)N[C@@H](CCCNC(=N)N)C(=O)N[C@@H](CC(N)=O)C(=O)N[C@@H](CCC(=O)O)C(=O)N[C@@H](CC(N)=O)C(=O)N[C@@H](CCC(N)=O)C(=O)N[C@@H](CCCNC(=N)N)C(=O)N[C@@H](CCC(=O)O)C(=O)N[C@H]1CCC(=O)NCCCC[C@@H](C(=O)N[C@@H](CC(N)=O)C(=O)N[C@@H](CCCNC(=N)N)C(=O)N[C@@H](CCCCN)C(=O)N[C@@H](Cc2ccc(O)cc2)C(=O)N[C@@H](CC(C)C)C(=O)N[C@@H](CC(=O)O)C(=O)N[C@@H](CCC(=O)O)C(=O)N[C@H](C(N)=O)C(C)C)NC(=O)[C@@H](C)NC(=O)[C@H](C)NC1=O` [Example 16 F, (cyclo 30-33)[Ac-Ser^7, D-Phe^12, Nle^18,21, Glu^30, D-Ala^32, Lys^33]-carp urotensin(7-41)] (Ac-SIDLT[dF]HLLRN[Nle]IE[Nle]ARNENQREEA[dA]KNRKYLDEV-NH2; lactam 24-27), for which the “lowering of blood pressure” value in assay [1] is reported as “very significant lowering of blood pressure”. Moreover, the “stimulation” value in assay [2] is “stimulate the secretion of ACTH and β-END-LI”.

Take `CCCC[C@H](NC(=O)[C@H](CCCCN)NC(=O)[C@H](C)NC(=O)[C@H](CCCNC(=N)N)NC(=O)[C@H](Cc1c[nH]cn1)NC(=O)[C@@H](NC(=O)[C@H](CCCC)NC(=O)[C@H](CC(N)=O)NC(=O)[C@H](CCCNC(=N)N)NC(=O)[C@H](CC(C)C)NC(=O)[C@H](CCCC)NC(=O)[C@H](Cc1c[nH]cn1)NC(=O)[C@@H](Cc1ccccc1)NC(=O)[C@@H](NC(=O)[C@H](CC(C)C)NC(=O)[C@H](CC(=O)O)NC(=O)[C@@H](NC(=O)[C@H](CO)NC(C)=O)[C@@H](C)CC)[C@@H](C)O)[C@@H](C)CC)C(=O)N[C@@H](CCC(=O)O)C(=O)NCC(=O)N[C@@H](CCC(=O)O)C(=O)N[C@@H](CCCNC(=N)N)C(=O)N[C@@H](CCC(=O)O)C(=O)N[C@H]1CCC(=O)NCCCC[C@@H](C(=O)N[C@@H](CC(N)=O)C(=O)N[C@@H](CCCNC(=N)N)C(=O)N[C@@H](CC(N)=O)C(=O)N[C@@H](CC(C)C)C(=O)N[C@@H](CCCC)C(=O)N[C@@H](CC(=O)O)C(=O)N[C@@H](CCC(=O)O)C(=O)N[C@H](C(N)=O)C(C)C)NC(=O)[C@@H](CC(C)C)NC(=O)[C@H](C)NC1=O` [Example 16 G, (cyclo 30-33)[Ac-Ser^7, D-Phe^12, Nle^14,18,24,38, Glu^30, D-Leu^32, Lys^33]-sole urotensin(7-41)] (Ac-SIDLT[dF]H[Nle]LRN[Nle]IHRAK[Nle]EGEREEA[dL]KNRNL[Nle]DEV-NH2; lactam 24-27): the “lowering of blood pressure” value in assay [1] is listed as “very significant lowering of blood pressure”. Besides, the “stimulation” value in assay [2] is “stimulate the secretion of ACTH and β-END-LI”.

`CCCC[C@H](NC(=O)[C@H](CCCCN)NC(=O)[C@H](C)NC(=O)[C@H](CCCNC(=N)N)NC(=O)[C@H](Cc1c[nH]cn1)NC(=O)[C@@H](NC(=O)[C@H](CCCC)NC(=O)[C@H](CC(N)=O)NC(=O)[C@H](CCCNC(=N)N)NC(=O)[C@H](CC(C)C)NC(=O)[C@H](CCCC)NC(=O)[C@H](Cc1c[nH]cn1)NC(=O)[C@@H](Cc1ccccc1)NC(=O)[C@@H](NC(=O)[C@H](CC(C)C)NC(=O)[C@H](CC(=O)O)NC(=O)[C@@H](NC(=O)[C@H](CO)NC(C)=O)[C@@H](C)CC)[C@@H](C)O)[C@@H](C)CC)C(=O)N[C@@H](CCC(=O)O)C(=O)NCC(=O)N[C@@H](CCC(=O)O)C(=O)N[C@@H](CCCNC(=N)N)C(=O)N[C@@H](CCC(=O)O)C(=O)N[C@H]1CCC(=O)NCCCC[C@@H](C(=O)N[C@@H](CC(N)=O)C(=O)N[C@@H](CCCNC(=N)N)C(=O)N[C@@H](CC(N)=O)C(=O)N[C@@H](CC(C)C)C(=O)N[C@@H](CC(C)C)C(=O)N[C@@H](CC(=O)O)C(=O)N[C@@H](CCC(=O)O)C(=O)N[C@H](C(N)=O)C(C)C)NC(=O)[C@@H](CCC(N)=O)NC(=O)[C@H](C)NC1=O` [Example 16 H, (cyclo 30-33)[Ac-Ser^7, D-Phe^12, Nle^14,18,24, Glu^30, D-Gln^32, Lys^33]-flounder urotensin(7-41)] (Ac-SIDLT[dF]H[Nle]LRN[Nle]IHRAK[Nle]EGEREEA[dQ]KNRNLLDEV-NH2; lactam 24-27): the “lowering of blood pressure” value in assay [1] is given as “very significant lowering of blood pressure”. Also, the “stimulation” value in assay [2] is “stimulate the secretion of ACTH and β-END-LI”.

Turning to “(cyclo 29-32)[D-Leu^11, Nle^17, Glu^29, Lys^32 ]-sauvagine [Example 3 C]”, the “lowering of blood pressure” value in assay [1] was “very significant lowering of blood pressure”. For the same molecule, the “stimulation” value in assay [2] was “stimulates the secretion of ACTH and β-END-LI”. Moreover, the “in vitro potency to stimulate secretion of ACTH relative to the Standard” value in assay [2] (relative to the laboratory Standard (synthetic oCRF), cultured rat pituitary cells, limits in parentheses) was “about 5.73 (2.61-13.51) times”.

Turning to “(cyclo 30-33)[Ac-Pro^4, D-Phe^12, Nle^21,38, Glu^30, D-His^32, Lys^33 ]-oCRF(4-41) [Example 3]”, the “lowering of blood pressure” value in assay [1] was “very significant lowering of blood pressure”. Besides, the “stimulation” value in assay [2] is “highly stimulates the secretion of ACTH and β-END-LI”.

On to “SEDPP[Nle]SIDLT[dF]H[Nle]LRN[Nle]IHRAK[Nle]EGEREEA[dQ]KNRNLLDEV-NH2 (lactam 30-33) [Example 3 H, (cyclo 30-33)[Nle^6,14,18,24, D-Phe^12, Glu^30, D-Gln^32, Lys^33]-flounder urotensin]”, for which the “lowering of blood pressure” value in assay [1] is “very significant lowering of blood pressure”. The “stimulation” value in assay [2] is “stimulates the secretion of ACTH and β-END-LI”.

As for “SEEPP[Nle]SIDLT[dF]H[Nle]LRN[Nle]IHRAK[Nle]EGEREEA[dL]KNRNLLDEV-NH2 (lactam 30-33) [Example 3 E, (cyclo 30-33)[Nle^6,14,18,24, D-Phe^12, Glu^30, D-Leu^32, Lys^33]-maggy urotensin]”, the “lowering of blood pressure” value in assay [1] is on record as “very significant lowering of blood pressure”. Moreover, the “stimulation” value in assay [2] is “stimulates the secretion of ACTH and β-END-LI”.

For “SEEPP[Nle]SIDLT[dF]H[Nle]LRN[Nle]IHRAK[Nle]EGEREEA[dL]KNRNL[Nle]DEV-NH2 (lactam 30-33) [Example 3 G, (cyclo 30-33)[Nle^6,14,18,24,381 D-Phe^12 Glu^301 D-Leu^32, Lys^33]-sole urotensin]”, in assay [1], the “lowering of blood pressure” value is on record as “very significant lowering of blood pressure”. For the same molecule, the “stimulation” value in assay [2] was “stimulates the secretion of ACTH and β-END-LI”.
